ChEMBL document CHEMBL1121453, “Mammalian alkaloids. 8. Synthesis and biological effects of tetrahydropapaveroline related 1-benzyltetrahydroisoquinolines” (J Med Chem, 1980)

Legend:
Type in all cases: cell membranes, Membrane
[1] = biological target: Adrenergic receptor alpha; assay: Inhibition of [3H]WB-4101 binding to alpha adrenergic receptor from rat cerebral cortical membranes
[2] = biological target: Adrenergic receptor beta (Rattus norvegicus, UniProt P18090+P10608+P26255); assay: Inhibition of [3H]dihydroalprenolol binding to Beta adrenergic receptor from rat cerebral cortical membranes
[3] = biological target: Dopamine receptor; assay: Inhibition of [3H]spiroperidol binding to dopamine receptor from rat striatum membranes

| SMILES | Ki [1] [µM] | Ki [2] [µM] | Ki [3] [µM] |
| --- | --- | --- | --- |
| COc1ccc(CC2NCCc3cc(OC)c(O)cc32)cc1O (configuration not stated) | 7.5 | 4 | 3.8 |
| COc1cc2c(cc1O)C(Cc1ccc(O)c(O)c1)NCC2 (configuration not stated) | 7.5 | 0.2 | 4.5 |
| Oc1ccc(C[C@H]2NCCc3cc(O)c(O)cc32)cc1O | 25 | 30 | 35 |
| Oc1cc(Br)c(CC2NCCc3cc(O)c(O)cc32)cc1O (configuration not stated) | 0.5 | 40 | 1.5 |
| COc1cc(CC2(C(=O)O)NCCc3cc(O)c(O)cc32)ccc1O (configuration not stated) | > 100 | > 100 | > 100 |
| O=C(O)C1(Cc2ccc(O)c(O)c2)NCCc2cc(O)c(O)cc21 (configuration not stated) | > 100 | > 100 | > 100 |
| COc1ccc(C[C@H]2NCCc3cc(OC)c(O)cc32)cc1O | 10 | 30 | 30 |
| Oc1ccc(CC2NCCc3cc(O)c(O)cc32)cc1O (configuration not stated) | 40 | 0.3 | 10 |
| COc1cc(CC2NCCc3cc(O)c(O)cc32)ccc1O (configuration not stated) | 4.5 | 0.5 | 5 |
| Oc1ccc(C[C@@H]2NCCc3cc(O)c(O)cc32)cc1O | 5 | 0.3 | 2 |
| COc1ccc(C[C@@H]2NCCc3cc(OC)c(O)cc32)cc1O | 5 | 1.3 | 1.5 |
| COc1ccc(CC2NCCc3cc(OC)c(OC)cc32)cc1OC (configuration not stated) [TETRAHYDROPAPAVERINE] | 10 | 1 |  |
| COc1cc(C[C@@H]2NCCc3cc(O)c(O)cc32)cc(OC)c1OC [TRETOQUINOL] | 10 |  | 5 |
